{"source": "patent US5962636A", "about": "“Peptides capable of modulating inflammatory heart disease” (priority 1998, dated 1999)", "tested_on": "Balb/c mice", "experiment": "Oligodeoxynucleotides as adjuvants: immunization with M7A-alpha peptide plus oligo; presence and severity of inflammatory heart disease", "assay_type": "in vivo", "conditions": "for Prevalence / Severity: day 21; for immunostimulatory / adjuvant activity: result in words, with M7A-alpha peptide, in the absence of Freund's complete adjuvant; for Severity: score ± SD, scale as in Example 1, adjuvant given with M7A-alpha peptide", "key": {"[1]": {"conditions": "adjuvant given with about 50 micrograms M7A-alpha peptide, days 0 and 7, oligos about 10 nmol with Freund's incomplete adjuvant"}}, "data": [{"sequence": "GTACTGACGTTTACTCTTGG (chemistry not given here) [CpG, oligonucleotide with CpG motif derived from DNA encoding a 60 kDa cysteine rich outer membrane protein from Chlamydia trachomatis]", "values": [{"measurement": "Prevalence", "setting": "about 10 nmol oligo without peptide (Peptide: None)", "value": "0/5"}, {"measurement": "Prevalence", "setting": "[1]", "value": "5/5"}, {"measurement": "immunostimulatory / adjuvant activity", "value": "potent immunostimulator"}, {"measurement": "Severity", "value": "1.2 ± 0.4"}]}, {"sequence": "GTACTGAGCTTTACTCTTGG (chemistry not given here) [non-CpG, counterpart of the CpG oligo not containing the CpG motif, reference compound]", "values": [{"measurement": "Prevalence", "setting": "[1]", "value": "1/5"}, {"measurement": "immunostimulatory / adjuvant activity", "value": "hardly effective as an adjuvant"}, {"measurement": "Severity", "value": "1.0 ± 0.0"}]}]}
